Experimental data from patent US20050027003A1, “Methods of therapeutic treatment using retinoids with reduced side effects” (Allergan, Inc., priority 2003, published 2005).

Key:
Format in all cases: in vivo, human
[1] = tested on: patients with severe nodulocystic acne; assay: Example 10: placebo-controlled parallel-group study of oral tazarotene in severe nodulocystic acne; settings: for patients withdrawing due to adverse events: placebo 0%
Text: A multicenter, double-blind, randomized, placebo-controlled parallel-group study is undertaken to determine the efficacy of orally administered tazarotene in treating severe nodulocystic acne.
In addition, washout periods for other medications for this study are: 1 week for vitamin A supplements >5000 IU; 2 weeks for topical anti-acne medications (e.g., retinoids, azelaic acid, benzoyl peroxide); 2 weeks for topical or systemic antibiotic therapy that may alter the course of acne; and 6 months for systemic retinoids.
Patients are randomized to receive placebo or oral tazarotene (0.75, 1.5, 3, or 6 mg), in a 1:1:1:1:1 ratio once daily for 24 weeks. After this, the patients are followed without treatment for an additional 12 weeks. Patients discontinuing from the treatment period due to adverse effects or lack of efficacy are eligible for entry into the post-treatment phase.
In the study, overall acne severity is rated as: none (no inflammatory acne lesions); mild (few to several papules or pustules, no nodulocystic lesions); moderate (several to many papules or pustules, few to several nodulocystic lesions); and severe (numerous or extensive papules or pustules, many, for example, at least about 5 or at least about 10, nodulocystic lesions).
Treatment success is defined as at least moderate (about 50%) improvement on the following 7-point global response scale: • 0=completely cleared • 1=almost cleared (about 90% improvement) • 2=marked response (about 75% improvement) • 3=moderate response (about 50% improvement) • 4=slight response (about 25% improvement) • 5=condition unchanged • 6=condition worsened
In this study, facial nodulocystic lesion count includes lesions greater than 5 mm in size. Facial papular/pustular lesion count includes lesions less than or equal to 5 mm in size. Facial non-inflammatory lesion count includes open and closed comedones.
Sebum output is assessed every 4 weeks at selected centers using the Sebutape® patches, sold by Cuderm Corporation. Urinalysis, chemistry, and hematology values are monitored. Bone formation and resorption assessments (serum bone alkaline phosphatase and serum amino terminal telopeptides, respectively) at selected centers are monitored.
Bone mineral density of spine and proximal femur at selected centers is monitored. Ligament calcification or osteophyte formation (lateral X-ray of the cervical and thoracic spine, and ankle calcaneous) is monitored. Epiphyseal growth plate closure (internal oblique X-ray of the ankle in patients less than or equal to 21 years old) is monitored.

patients = assay: Example 3: two placebo-controlled 24-week safety studies plus dose-response evaluations of oral tazarotene; settings: for incidence of patients discontinuing due to adverse effects: placebo 3%
Procedure: Two multicenter, double-blind, randomized, placebo-controlled 24-week studies of identical design are conducted to evaluate the safety of oral tazarotene. In addition, 16- to 24-week dose-response evaluations are performed.
In the two safety trials, the incidence of adverse side effects with a 4.5 mg dose administered orally once daily is compared to the incidence of the same side effects with a placebo. […] The majority of these were mild in severity and typical of adverse effects associated with oral retinoids.

[2] = tested on: patient with severe psoriasis; assay: Example 9: patient with severe psoriasis taking Ortho-Novum, tazarotene 6 mg per day; settings: after 30 days
Text: The patient presents symptoms of severe psoriasis. The symptoms include lesions approximately 4 to 10 centimeters across appearing as raised patches of wine red skin many of which are covered in silvery white scales. The lesions are mostly dry and rough, and quite often noticeably warm to the touch. The lesions are present on the elbows, knees, scalp, and groin area. The patient experiences intense burning and itching associated with the lesions.
The patient is currently taking Ortho-Novum® for contraception.
Tazarotene at a dose of 6 mg per day is prescribed.

[3] = 0.75 to 6 mg once daily, 24 weeks

bone formation and resorption (serum bone alkaline phosphatase, serum amino terminal telopeptides) [1, 3]: do not appear to be altered
SMILES: CCOC(=O)c1ccc(C#Cc2ccc3c(c2)C(C)(C)CCS3)nc1 [tazarotene]
patients withdrawing due to adverse events ([1]; 0.75 mg group (2/35)): 6%
patients withdrawing due to adverse events ([1]; 1.5 mg group (0/37)): 0%
incidence of treatment success (≧50% global improvement) vs placebo ([1]; 3 mg and 6 mg, week 24 and throughout post-treatment phase, p≦0.05): significantly higher incidence
patients withdrawing due to adverse events ([1]; 3 mg group (2/37)): 5%
patients withdrawing due to adverse events ([1]; 6 mg group (1/36)): 3%
percentage of patients with at least a 90% reduction in facial nodulocystic lesion count vs placebo ([1]; 6 mg group, end of the post-treatment phase): significant superiority over placebo
reduction of overall acne severity ([1]; 6 mg, week 16 until end of post-treatment phase, p≦0.01): significantly more than placebo
changes in urinalysis, chemistry, or hematology measures (incl. liver function tests, triglycerides, total cholesterol, HDL cholesterol) [1, 3]: None of the treatment groups show any consistent clinically significant changes
reductions in number of facial papules or pustules and facial non-inflammatory acne lesions vs placebo ([1]; from week 8 onward): consistently greater reductions
reductions in number of total facial nodulocystic lesions vs placebo ([1]; from week 8 onward): consistently greater reductions
efficacy in severe nodulocystic acne ([1]; once-daily doses of 1.5, 3, and 6 mg): efficacious
incidence of patients discontinuing due to adverse effects (patients; 4.5 mg (n=348)): 3%
incidence of hypertriglyceridemia, hypercholesterolemia, abnormal liver function tests, increased alanine aminotransferase, increased aspartate aminotransferase, desquamation, eye dryness, alopecia (patients; 4.5 mg orally once daily vs placebo): essentially the same incidence
incidence of patients discontinuing due to adverse effects (patients; 6.3 mg (n=16)): 13%
incidence of patients discontinuing due to adverse effects (patients; 0.4 to 1.1 mg (n=105)): approximately 2%
incidence of patients discontinuing due to adverse effects (patients; 2.1 to 2.8 mg (n=21)): 10%
incidence of patients discontinuing due to adverse effects (patients; (n=14)): 0%
severity of lesions [2]: substantially lessened
symptoms of itching and burning [2]: relieved
